Among the data in BindingDB's records for PubMed 11408545 (Glaxosmithkline, 2001) are Ki values, retold here.

Several values for one entry are separate records, joined by “and”; a condition that tells them apart may be missing. Equal entries are not always repeated.

Assay [1] concerns the target T1, Alpha-2B adrenergic receptor (Oryctolagus cuniculus, UniProt O77830).
T1 sequence (O77830 whole entry): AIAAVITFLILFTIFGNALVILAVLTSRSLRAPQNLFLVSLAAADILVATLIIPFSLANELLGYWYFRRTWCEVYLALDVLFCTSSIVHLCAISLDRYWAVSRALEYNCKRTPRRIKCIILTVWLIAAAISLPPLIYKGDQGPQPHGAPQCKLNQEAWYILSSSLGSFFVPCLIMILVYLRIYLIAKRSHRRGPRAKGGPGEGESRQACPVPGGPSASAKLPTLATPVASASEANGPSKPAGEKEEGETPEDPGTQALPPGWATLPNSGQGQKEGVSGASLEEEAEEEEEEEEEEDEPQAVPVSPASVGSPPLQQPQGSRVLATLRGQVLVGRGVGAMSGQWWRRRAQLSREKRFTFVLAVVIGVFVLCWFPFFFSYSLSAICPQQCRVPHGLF

Assay [2] deals with T2, Alpha-2A adrenergic receptor [16-465] (Rattus norvegicus, UniProt P22909).
T2 construct: 16-465
T2 sequence (P22909 whole entry): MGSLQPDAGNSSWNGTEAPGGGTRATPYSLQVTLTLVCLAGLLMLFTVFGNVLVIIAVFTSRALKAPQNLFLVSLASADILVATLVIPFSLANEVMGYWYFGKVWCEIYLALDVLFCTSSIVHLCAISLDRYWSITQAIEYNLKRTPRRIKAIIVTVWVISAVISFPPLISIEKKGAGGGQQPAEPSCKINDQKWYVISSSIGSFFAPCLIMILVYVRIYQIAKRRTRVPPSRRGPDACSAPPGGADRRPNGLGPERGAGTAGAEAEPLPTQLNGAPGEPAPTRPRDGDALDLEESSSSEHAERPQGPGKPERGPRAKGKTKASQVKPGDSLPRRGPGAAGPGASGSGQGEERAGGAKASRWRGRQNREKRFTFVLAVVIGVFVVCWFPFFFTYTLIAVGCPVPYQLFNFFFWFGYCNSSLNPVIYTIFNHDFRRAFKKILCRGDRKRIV

In assay [3] the target is T3, Alpha-2A adrenergic receptor (Homo sapiens, UniProt P08913).
T3 sequence (P08913 whole entry): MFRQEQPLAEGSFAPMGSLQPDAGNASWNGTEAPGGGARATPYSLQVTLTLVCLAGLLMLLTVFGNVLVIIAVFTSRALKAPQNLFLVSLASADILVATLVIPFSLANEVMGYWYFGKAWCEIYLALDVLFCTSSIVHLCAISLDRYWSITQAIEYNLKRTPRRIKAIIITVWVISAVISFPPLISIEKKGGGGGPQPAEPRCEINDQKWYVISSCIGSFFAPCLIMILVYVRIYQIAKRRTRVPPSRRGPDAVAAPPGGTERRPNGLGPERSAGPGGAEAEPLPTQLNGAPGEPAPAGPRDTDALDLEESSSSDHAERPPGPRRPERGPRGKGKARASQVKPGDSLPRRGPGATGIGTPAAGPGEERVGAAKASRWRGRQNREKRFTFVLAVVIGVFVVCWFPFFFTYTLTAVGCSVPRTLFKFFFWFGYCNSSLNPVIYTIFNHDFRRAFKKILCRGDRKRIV

The Ki is the dissociation constant of the complex between target and ligand, obtained from inhibition or displacement. Low readings indicate higher affinity, high ones lower affinity. Consider `Cc1ccc(N(CC2=NCCN2)c2cccc(O)c2)cc1` [SMR000059054], for which, in assay [1], the inhibitory constant (Ki) is 24.1 nM and 18.4 nM.
Consider `COc1cccc(OC)c1OCCNCC1Oc2ccccc2OC1c1ccccc1` (stereo not given) [NSC_185453], for which the inhibitory constant (Ki) was 142 nM in assay [2]; 5.3 nM and 11.8 nM in assay [1]; 3.5 nM in assay [3].
For the compound `COc1cc2nc(N3CCN(C(=O)c4ccco4)CC3)nc(N)c2cc1OC` [[3H]-Minipress], the inhibitory constant (Ki) in assay [1] is more than 10000 nM.
The same measure, in the same setting: next, `NCC(O)c1ccc(O)c(O)c1` (stereo not drawn) [Noradrenaline,(+)]: 284 nM and 57 nM.
Turning to `O=C1NCN(c2ccccc2)C12CCN(CC1COc3ccccc3O1)CC2` (stereo not given) [8-(2,3-Dihydro-benzo[1,4]dioxin-2-ylmethyl)-1-phenyl-1,3,8-triaza-spiro[4.5]decan-4-one], the inhibition constant (Ki) in assay [2] is 92 nM; in assay [1], 169 nM and 129 nM; in assay [3], 28.3 nM.
Turning to `COc1ccccc1N1CCN(CCC2C(=O)c3ccccc3C(C)(C)C2=O)CC1` (stereo not given) [NSC_122211], the Ki in assay [2] is 484 nM; in assay [1] it was more than 10000 nM; in assay [3], 373 nM.
For the compound `COC(=O)C1=COC(C)C2CN3CCc4c([nH]c5ccccc45)C3CC12` (stereo not given) [Ajmalicine], the Ki was 1470 nM in assay [2]; 376 nM and 429 nM in assay [1]; 47.6 nM in assay [3].
As for `COC1(C2=NCCN2)COc2ccccc2O1` (stereo not given) [RX821002], the Ki in assay [2] is 0.95 nM; in assay [1], 7.3 nM and 6.4 nM.
With `CN1C[C@H](Cn2ccnc2-c2ccccc2)C[C@@H]2c3cccc4[nH]c(Br)c(c34)C[C@H]21` [BAM-1303], the Ki in assay [2] was 313 nM; in assay [1], 95.3 nM and 46 nM; in assay [3] it was 18.1 nM.
For the compound `CC(C)=CCOc1ccc(Cl)c2c1CCN(C)CC2` [SK&F-104078], the Ki in assay [2] was 244 nM; in assay [1], 292 nM and 191 nM; in assay [3], 30.4 nM.
With `CN(C)CCCN1c2ccccc2Sc2ccc(Cl)cc21` [[3-(2-Chloro-phenothiazin-10-yl)-propyl]-dimethyl-amine(Chlorpromazine)], the inhibitory constant (Ki) in assay [1] was 2690 nM and 3130 nM.
Consider `Cc1cc(C(C)(C)C)c(O)c(C)c1CC1=NCCN1` [SMR000059324], for which, in assay [1], the inhibition constant (Ki) is 6.3 nM and 4.5 nM.
